Data set [1] can be described thus: GSK_TCAKS: pIC50 HepG2 human cell line viability assay using luminiscence. […] Seeding density was checked to ensure that new mono-layers were not more than 50% confluent at the time of harvesting. Cell suspension was added to 500 mL of the same medium at a final density of 1.2 * 10^5 cells/mL. This cell suspension was dispensed (25 uL, 3000 cells per well) into 384-well clear-bottom plates using a Multidrop Combi dispenser. Prior to addition of the cell suspension, the screening compounds (250 nL) were pre-dispensed into the plates with an Echo liquid handler. Plates were incubated for 48 h at 37C, 5% CO2. After incubation, plates equilibrated at room temperature for 30 min before proceeding to develop the luminescent signal. The signal developer, CellTiter-Glo Reagent, was allowed to equilibrate at room temperature for 30 min and added to the plates (25uL per well) using a Multidrop Combi dispenser. Plates were left for 10 min at room temperature for stabilization and then read using a ViewLux. The data set is classed as toxicity, cell-based. For orientation: Cellular ATP, detected with luciferase, serves as a proxy for viable cell number.

Data set [2] relates to Leishmania donovani. The data set is described as follows: GSK_TCAKS: pIC50 Leishmania donovani viability assay using fluorescence intensity. Assay plates (1536-well) were prepared by adding 30nL per well of compound. For single shot assay, the final compound concentration was 5uM. […] Briefly, eGFP LdBOB axenic amastigotes were harvested, fixed and counted in a CASY cell counter (Roche-Applied Science). A final concentration of 1.5 * 10^5 cells per well were prepared in amastigote media containing 500 U/mL penicillin/streptomycin (Invitrogen) and 6uL was dispensed to each experimental well using a Multidrop Combi dispenser (Thermo Scientific). 6uL of assay media was dispensed to control columns used as reference for 100% compound response. Following incubation for 72 h at 37C, 5% CO2, 2 uL of resazurin was added to each well at a final concentration of 0.5 mM in phosphate buffered saline (PBS) with IGEPAL (Sigma-Aldrich), 0.05% (v/v). The data set is classed as functional, organism-based. In general terms: The colour change of resazurin is a common sign of viable cells or microbes.

The subject of data set [3] is Trypanosoma cruzi. As to the kind of experiment: GSK_TCAKS: pIC50 Trypanosoma cruzi Imaging: Amastigotes/Cell. […] Cells were then washed once with PBS before infection. T. cruzi trypomastigotes, collected at days 5 to 8 after infection from LLC-MK2 parasite infected cultures, were allowed to swim out for 4h at 37C from a centrifuged pellet (2,500 rpm/10 min/room temperature). Trypomastigotes were then collected and counted in a CASY Cell Counter. Trypomastigotes, in supplemented DMEM, were added to H9c2 cultures in a multiplicity of infection of 1 and incubated for 18 h. Cells were washed once with PBS before incubation of the infected H9c2 monolayer with trypsin (Life-Technologies) to detach cells from the flask. Cells were counted in a CASY Cell Counter using a 150 um capillary and their density set at 5 * 10^4 cells per mL in supplemented assay DMEM. Infected H9c2 were dispensed into 384-well poly-lysine coated assay plates at 50uL per well using a Multidrop Combi dispenser. After seeding them, the plates were incubated at 37C, 5% CO2 for 72h. Cultures were then fixed and stained by addition of 50 uL of a solution containing 8% formaldehyde and 4 uM DRAQ5 DNA dye (BioStatus, UK) per well. […] Five images were collected per well for reliable statistical analysis. Automated image analysis was performed with a script developed on Acapella High Content Imaging and Analysis Software (PerkinElmer). Output: number of amastigotes per cell as infection level measurement. In kind it is functional, organism-based, Rattus norvegicus. The following applies: H9c2, 4 h.

Data set [4] concerns Leishmania donovani. As to the kind of experiment: GSK_TCAKS: pIC50 Leishmania donovani Imaging: Infected Macrophages. Assay plates (384-well) were prepared by adding 250nL of compound to each well. For single shot assay, the final compound concentration was 5 uM. […] Automated image analysis was performed with a script developed on Acapella High Content Imaging and Analysis Software (PerkinElmer). Output: Percent of infected macrophage cells were reported for each well. The following applies: THP-1. The data set is classed as functional, organism-based, Homo sapiens.

For data set [5], the system named is Trypanosoma brucei brucei. The data set is described as follows: GSK_TCAKS: pIC50 Trypanosoma brucei viability assay using fluorescence intensity. Assay plates (1536-well) were prepared by dispensing 25nL of compound solution per well using an Echo acoustic dispenser (Labcyte). The following applies: Lister 427, 2 h. In kind it is functional, organism-based.

Data set [6] relates to Leishmania donovani. The data set is described as follows: GSK_TCAKS: pIC50 Leishmania donovani Imaging: Amastigotes/Macrophages. Assay plates (384-well) were prepared by adding 250nL of compound to each well. For single shot assay, the final compound concentration was 5 uM. […] Automated image analysis was performed with a script developed on Acapella High Content Imaging and Analysis Software (PerkinElmer). Output: Average number of amastigotes per macrophage cell were reported for each well. The note with it: THP-1. The data set is classed as functional, organism-based, Homo sapiens.

Data set [7] concerns Leishmania donovani. As to the kind of experiment: GSK_TCAKS: pIC50 Leishmania donovani Imaging: THP-1 Host Macrophages. Assay plates (384-well) were prepared by adding 250nL of compound to each well. For single shot assay, the final compound concentration was 5 uM. […] Automated image analysis was performed with a script developed on Acapella High Content Imaging and Analysis Software (PerkinElmer). Output: THP-1 cell count were reported for each well. The data set is classed as functional, organism-based, Homo sapiens.

For data set [8], the system named is Trypanosoma brucei brucei. As to the kind of experiment: GSK_TCAKS: pIC50 Trypanosoma brucei viability assay using luminiscence. Assay plates (1536-well) were prepared. T. brucei cultures were harvested and counted in a CASY cell counter. A parasite suspension was prepared at a final concentration of 5 * 10^4 cells/mL in complete HMI9 medium and 6uL was dispensed to all wells containing compounds using a Multidrop Combi dispenser. 6uL of HMI9 media with 0.4% DMSO were dispensed to control columns. Plates were incubated for 24 h at 37C, 5% CO2 then tempered for 10 min at room temperature. ATP content was quantified by adding 4 uL of CellTiter-Glo Reagent (Promega) according to the manufacturer's instructions. Luminescence was measured using a ViewLux. The data set is classed as functional, organism-based. The following applies: Lister 427, CASY.

Data set [9] relates to Trypanosoma cruzi. As to the kind of experiment: (§1) GSK_TCAKS: pIC50 Trypanosoma cruzi Imaging: Infected Cells. […] Cells were then washed once with PBS before infection. T. cruzi trypomastigotes, collected at days 5 to 8 after infection from LLC-MK2 parasite infected cultures, were allowed to swim out for 4h at 37C from a centrifuged pellet (2,500 rpm/10 min/room temperature). Trypomastigotes were then collected and counted in a CASY Cell Counter. Trypomastigotes, in supplemented DMEM, were added to H9c2 cultures in a multiplicity of infection of 1 and incubated for 18 h. Cells were washed once with PBS before incubation of the infected H9c2 monolayer with trypsin (Life-Technologies) to detach cells from the flask. Cells were counted in a CASY Cell Counter using a 150 um capillary and their density set at 5 * 10^4 cells per mL in supplemented assay DMEM. Infected H9c2 were dispensed into 384-well poly-lysine coated assay plates at 50uL per well using a Multidrop Combi dispenser. After seeding them, the plates were incubated at 37C, 5% CO2 for 72h. Cultures were then fixed and stained by addition of 50 uL of a solution containing 8% formaldehyde and 4 uM DRAQ5 DNA dye (BioStatus, UK) per well. […] Five images were collected per well for reliable statistical analysis. Automated image analysis was performed with a script developed on Acapella High Content Imaging and Analysis Software (PerkinElmer). Output: percentage of infected cells per well as a second infection marker. The following applies: H9c2, 4 h. In kind it is functional, organism-based, Rattus norvegicus.

The subject of data set [10] is Trypanosoma cruzi. The data set is described as follows: GSK_TCAKS: pIC50 Trypanosoma cruzi viability assay using beta-GAL activity. This assay was run at single shot at 5uM compound concentration per well. The biological reagents consisted of NIH-3T3 host cells and trypomastigotes parasitic cells; both cell types were set to a 3.3 * 10^5 cells/mL dilution in assay DMEM by means of a CASY cell counter device using a 60um capillary. 6 uL of the mixture were dispensed per well (about 1 * 10^3 host-cells and 1 * 10^3 parasites) with a Multidrop Combi dispenser. […] In all wells, the percentage of DMSO never exceeded 0.5%. Plates incubated for four days at 37C, 5% CO2. The substrate used for the assay fluorescence intensity (FLINT) readout was resorufin-beta-D-galactopiranoside (Sigma-Aldrich) at 5uM per well. It was diluted in PBS supplemented with the soft detergent Igepal (Fluka). The data set is classed as functional, organism-based, Mus musculus. The note with it: Tulahuen, NIH3T3.

Data set [11] deals with Sterol 14-alpha demethylase (Trypanosoma cruzi (strain CL Brener), UniProt Q7Z1V1). The data set is described as follows: GSK_TCAKS: pIC50 CYP51 from Trypanosoma cruzi. The data set is classed as functional.
Chain of Sterol 14-alpha demethylase (Q7Z1V1 whole entry): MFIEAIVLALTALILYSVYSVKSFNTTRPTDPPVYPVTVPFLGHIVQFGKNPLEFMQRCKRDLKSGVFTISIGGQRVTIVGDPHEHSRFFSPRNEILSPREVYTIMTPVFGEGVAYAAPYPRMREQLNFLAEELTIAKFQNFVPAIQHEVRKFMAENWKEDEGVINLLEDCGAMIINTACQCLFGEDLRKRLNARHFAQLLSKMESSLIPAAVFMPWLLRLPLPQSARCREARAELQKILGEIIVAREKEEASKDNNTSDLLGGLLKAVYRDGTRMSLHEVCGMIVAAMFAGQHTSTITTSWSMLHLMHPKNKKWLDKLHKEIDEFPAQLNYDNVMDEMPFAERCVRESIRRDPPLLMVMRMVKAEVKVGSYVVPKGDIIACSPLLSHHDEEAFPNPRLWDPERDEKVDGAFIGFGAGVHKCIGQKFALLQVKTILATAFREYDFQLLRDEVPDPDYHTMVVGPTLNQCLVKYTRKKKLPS
In data set [12] the test system is Trypanosoma cruzi. The description is as §1, with “H2C9” for “Trypanosoma cruzi”, “H9c2 Host Cardiomyocytes.” for “Infected Cells.”, “Number” for “percentage”, “H9c2 Host Cardiomyocytes nuclei to determine drug-related cytotoxicity.” for “infected cells per well as a second infection marker.”. The data set is classed as functional, organism-based, Rattus norvegicus. The note with it: H9c2, 4 h.

Molecules are shown by their SMILES.

Turning to `COc1ccc(OC)c(NC(=O)c2ccc([N+](=O)[O-])o2)c1`, the IC50 – broadly, the concentration that gives 50% inhibition – at 48 h in [1] was 20 µM. In addition, the IC50 is 25.1 µM in the data set with Leishmania donovani [2]; 7.94 µM in the data set with Trypanosoma cruzi [3]; 31.6 µM with Leishmania donovani [4]; 0.0158 µM in data set [5]; 15.8 µM in the data set with Leishmania donovani [6]; 20 µM with Leishmania donovani [7]. The IC50 was 0.0631 µM in [8]; 12.6 µM in the data set with Trypanosoma cruzi [9]; 3.16 µM in the data set on Trypanosoma cruzi [10]; 10 µM in [11]; 3.98 µM with Trypanosoma cruzi [12].
`COc1ccc(CNc2cc(C3CC3)nc(-c3nccn3C)n2)cc1` gave an IC50 at 48 h in data set [1] of 25.1 µM. Further, the half-inhibitory concentration (IC50) was 2 µM in the data set with Leishmania donovani [2]; 0.631 µM with Trypanosoma cruzi [3]; 0.794 µM with Leishmania donovani [4]; 1.26 µM in [5]; 0.794 µM with Leishmania donovani [6]; 12.6 µM in the data set with Leishmania donovani [7]. Moreover, the IC50 in data set [8] was 2.51 µM; in the data set with Trypanosoma cruzi [9], 0.794 µM; in the data set on Trypanosoma cruzi [10], 1 µM; in data set [11], 5.01 µM; with Trypanosoma cruzi [12], 1 µM.
With `COc1ccc(-c2cnc(NC(=O)c3ccc(F)cc3)n2C)cc1`, the IC50 at 48 h in data set [1] was > 100 µM. Moreover, the 50% inhibitory concentration (IC50) with Leishmania donovani [2] was 3.16 µM; in the data set with Trypanosoma cruzi [3], 2 µM; in the data set on Leishmania donovani [4], 1.26 µM; in data set [5] it was 1.26 µM; in the data set with Leishmania donovani [6], 0.501 µM; in the data set on Leishmania donovani [7] it was > 50.1 µM. In addition, the IC50 is 3.16 µM in data set [8]; 5.01 µM in the data set with Trypanosoma cruzi [9]; 2.51 µM in the data set on Trypanosoma cruzi [10]; 10 µM in data set [11]; > 50.1 µM with Trypanosoma cruzi [12].
For the molecule `Cn1nccc1NC(=O)Cn1ccc(-c2ccncc2)n1`, in [1], the IC50 at 48 h is > 100 µM. For the same molecule, the IC50 was > 50.1 µM in the data set with Leishmania donovani [2]; > 50.1 µM with Trypanosoma cruzi [3]; > 50.1 µM in the data set on Leishmania donovani [4]; 0.631 µM in [5]; > 50.1 µM in the data set with Leishmania donovani [6]; > 50.1 µM in the data set on Leishmania donovani [7]. Moreover, the IC50 in data set [8] is 0.631 µM; in the data set on Trypanosoma cruzi [9], > 50.1 µM; in the data set on Trypanosoma cruzi [10], > 50.1 µM; in [11] it was 6.31 µM; in the data set with Trypanosoma cruzi [12] it was > 50.1 µM.
`CC(C)(C)CC(=O)NCCc1csc(-c2ccc(F)cc2)n1`: the 50% inhibitory concentration (IC50) at 48 h in data set [1] was > 100 µM. For the same molecule, the IC50 in the data set with Leishmania donovani [2] is > 50.1 µM; in the data set with Trypanosoma cruzi [3] it was 0.794 µM; with Leishmania donovani [4], 31.6 µM; in data set [5], 0.631 µM; in the data set with Leishmania donovani [6], 15.8 µM; in the data set on Leishmania donovani [7], 15.8 µM. Besides, the IC50 in data set [8] is 0.501 µM; in the data set on Trypanosoma cruzi [9], 1 µM; with Trypanosoma cruzi [10], 1.26 µM; in data set [11], 20 µM; in the data set with Trypanosoma cruzi [12] it was > 50.1 µM.

(Values after ChEMBL document CHEMBL3430912, “GSK Tres Cantos Anti-Kinetoplastid Screening (TCAKS) Data”.)
